According to article PMC5587766, “Towards designer organelles by subverting the peroxisomal import pathway” (Nature Communications, 2017):
The star is where a group is joined. Dansyl = CN(C)c1cccc2c(S(=O)(=O)*)cccc12

How the values were obtained:
[1] = lissamine-labelled peptide, not pursued in FA assay
AtPEX5 TPR domain = settings: cited from earlier work
Text: The pentapeptide library sequences were based on YQSKL, which has a nM affinity for the AtPEX5 TPR domain[17] and is widely used as a model PTS1 peptide. This sequence was randomized at the two C-terminal positions to create a library of sequences, YQSXX, where X represents any amino acid, which was efficiently prepared using split-and-pool solid-phase peptide synthesis. A dansyl fluorophore introduced at the N-terminus of the peptide added hydrophobicity to improve retention in LC-MS analysis. Deconvolution of Leu- and Ile-containing peptides was enabled by preparation of four sub-librari ...

[2] = tested on: naturally occurring PEX5 receptor; experiment: PEX5 (naturally occurring receptor) binding of orthogonal peptide (overall statement)
Text: PEX5 is a modular protein: the C-terminal domain recognizes PTS1 within a funnel-shaped pocket created by 7 α-helical tetratricopeptide repeats (TPRs)[14], while the N-terminal domain of PEX5, which is natively unstructured, is responsible for the docking, cargo delivery, and recycling functions of the receptor[10]. […] The PEX5*-PTS1* pair was discovered by assessing the binding of a range of variants of the C-terminal domain of Arabidopsis thaliana PEX5 (AtPEX5C) with a library of pentapeptides (Fig. 1a). […] PTS1* has low affinity for the naturally occurring PEX5 receptor. Following optimization, the C-terminal PEX5* sequence was combined with the N-terminal domain of PEX5 from the moss Physcomitrella patens (Phypa PEX5N) to create a fully functional PEX5* receptor (Fig. 1a). Concomitant expression of PEX5* with a cargo protein bearing PTS1* results in targeting of the cargo to the peroxisome at the expense of naturally occurring peroxisomal components—a process that was easily visualized in moss cells using fluorescent reporter proteins (Fig. 1b).

AtPEX5C N601A = molecular target: T1, AtPEX5C N601A (Arabidopsis thaliana, UniProt Q9FMA3 340-728, N601A); experiment: pull-down; His6-protein (12.5 µM) incubated with the combined dansyl-YQSXX library (500 nM each peptide) in 50 mM Na2HPO4, 300 mM NaCl, 10 mM 2-mercaptoethanol, 15% glycerol, pH 8.0, 4 °C, 1 h; captured on Co-NTA resin, washed, bound peptides eluted with 6 M urea and identified by ESI-LC-MS; semi-quantitative; settings: both partners purified
T1 construct: Made by site-directed mutagenesis of His6-AtPEX5 (340-728) in pET-28b; also called N601A variant; source: E. coli BL21-Gold (DE3), purified (Co-NTA)
T1 sequence (looked up): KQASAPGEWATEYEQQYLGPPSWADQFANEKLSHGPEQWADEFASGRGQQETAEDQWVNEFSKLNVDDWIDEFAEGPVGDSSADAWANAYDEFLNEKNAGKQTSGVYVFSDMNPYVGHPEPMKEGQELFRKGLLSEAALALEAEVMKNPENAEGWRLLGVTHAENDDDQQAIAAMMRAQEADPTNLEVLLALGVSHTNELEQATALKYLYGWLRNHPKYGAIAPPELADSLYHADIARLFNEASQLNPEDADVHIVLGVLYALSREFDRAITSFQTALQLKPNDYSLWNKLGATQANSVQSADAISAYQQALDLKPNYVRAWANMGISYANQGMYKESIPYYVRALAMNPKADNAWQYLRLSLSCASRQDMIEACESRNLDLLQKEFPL

AtPEX5C D505H = molecular target: T2, AtPEX5C D505H (Arabidopsis thaliana, UniProt Q9FMA3 340-728, D505H); experiment: as above; settings: both partners purified
T2 construct: Made by site-directed mutagenesis of His6-AtPEX5 (340-728) in pET-28b; also called D505H variant of AtPEX5C; source: E. coli BL21-Gold (DE3), purified (Co-NTA)
T2 sequence (looked up): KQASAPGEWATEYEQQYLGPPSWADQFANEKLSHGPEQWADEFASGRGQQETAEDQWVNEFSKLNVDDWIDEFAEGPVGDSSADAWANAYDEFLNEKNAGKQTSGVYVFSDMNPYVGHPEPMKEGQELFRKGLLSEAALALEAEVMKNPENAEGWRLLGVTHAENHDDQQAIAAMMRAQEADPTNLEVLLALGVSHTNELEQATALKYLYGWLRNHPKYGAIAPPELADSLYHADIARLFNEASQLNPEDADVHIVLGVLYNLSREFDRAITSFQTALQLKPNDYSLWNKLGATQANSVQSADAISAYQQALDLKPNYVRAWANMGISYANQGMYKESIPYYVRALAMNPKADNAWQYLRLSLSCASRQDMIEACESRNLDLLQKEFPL

With lissamine-labelled YQSFY the solubility [1] was “poor solubility”.

For YQSKL [model PTS1 peptide], the “affinity for AtPEX5 TPR domain” value (AtPEX5 TPR domain) is listed as “nM affinity”.

With “WWRDPYSPMYQSYY [PTS1*, YQSYY including enhancing upstream residues]” the “affinity for naturally occurring PEX5 receptor” value [2] was “low affinity”.

B1: dansyl-YQSFY (peptide)
peptide: Dansyl-YQSFY-OH
SMILES: CN(C)c1cccc2c(S(=O)(=O)N[C@@H](Cc3ccc(O)cc3)C(=O)N[C@@H](CCC(N)=O)C(=O)N[C@@H](CO)C(=O)N[C@@H](Cc3ccccc3)C(=O)N[C@@H](Cc3ccc(O)cc3)C(=O)O)cccc12
notes: member of the YQSXX pentapeptide library; Tested within the combined library of 324 peptides, not alone; source: synthetic peptide, member of the split-and-pool dansyl-YQSXX library
B1: binds (AtPEX5C N601A); binds (AtPEX5C D505H).
